Measured values reported in patent US10883083B2, “Tissue-engineered three-dimensional model for tumor analysis” (The Trustees of Columbia University in the City of New York, priority 2013, dated 2021).

Test system: ES cells (SK-N-MC) in Col 1-HA scaffold
Experiment: Blebbistatin treatment of bioengineered tumor: cell morphology and exosome size (NTA)
Format: cell-based, human
Conditions: blebbistatin-treated vs untreated controls, 3D setting
Procedure: To seed 3D Collagen 1-HA scaffolds, single-cell suspension of SK-N-MC cells was adjusted to the cell concentration of 1×10^6 cells/mL in a 50 ml Falcon tube. A total of 15 scaffolds were added to 30 mL of cell suspension, and the Falcon was set onto a rotary platform for 3 hours at 37° C./5% CO2. Cell seeded scaffolds were then transferred to non-treated wells in 12-multiwell plates (Nunc) and cultured in 2 mL of medium at 37° C./5% CO2. Cell numbers and were determined by Quant-iT PicoGreen dsDNA Assay Kit (Life technologies) according to the manufacturer's instructions. Exosome isolation and size analysis: Cells cultured in monolayers, aggregates and 3D scaffolds were washed with PBS twice and cultured in EMEM supplemented with 10% (v/v) Exosome-depleted FBS (SBI) and 1% penicillin/streptomycin for 12 h. The supernatants were collected and exosomes were isolated from cell culture media using the total exosome isolation kit (Invitrogen), according to the manufacturer's protocol. Exosomes from plasma samples were also isolated using the total exosome isolation kit (Invitrogen). The size distributions of exosomes were determined by Nanoparticle Tracking Analysis (NTA) using the Nanosight machine. To probe a possible mechanism underlying the observed effects of the tumor environment on exosome size, we modified the tension forces within the cells.

Cc1ccc2c(c1)C(=O)C1(O)CCN(c3ccccc3)C1=N2 (centres unmarked) [Blebbistatin]
Cell morphology / cell aggregates: partial disassembly of cell aggregates | Exosome size distribution: shift of the exosome size distribution curve to higher values
